Data set [1] relates to RAW264.7. Kind of data set: Inhibition of LPS-induced IL-1beta mRNA level in mouse RAW264.7 cells in presence of 1 ug/ml LPS for 6 hrs by qRT-PCR analysis. The class given is functional, cell-based. (In qPCR the cycle at which signal appears reflects the starting amount.)
Data set [2] concerns RAW264.7. Description: Inhibition of LPS-induced TNF-alpha production in mouse RAW264.7 cells pretreated with compound at 100 uM for 1 hr followed by addition of 1 ug/ml LPS for 6 hrs by ELISA. The data set is classed as functional. (ELISA stands for enzyme-linked immunosorbent assay.)
A short description of data set [3]: Cytotoxicity against mouse RAW264.7 cells assessed as decrease in cell viability pretreated at 50 uM for 1 hr followed by addition of LPS incubated for 24 hrs by MTT assay. The class given is cell-based. To be noted: read-out: INH. On the technique in general: Tetrazolium assays rely on reduction of a dye to a coloured formazan, in cell work by metabolically active cells.

The test system of data set [4] is RAW264.7. Description: Inhibition of LPS-induced TNF-alpha mRNA level in mouse RAW264.7 cells in presence of 1 ug/ml LPS for 6 hrs by qRT-PCR analysis. The data set is classed as functional, cell-based.
The subject of data set [5] is RAW264.7. Kind of data set: Toxicity in mouse RAW264.7 cells assessed as effect on TNF-alpha mRNA level by qRT-PCR analysis. The data set is classed as cell-based.
Data set [6] relates to RAW264.7. Kind of data set: Toxicity in mouse RAW264.7 cells assessed as effect on NO production by Griess method. The class given is cell-based.
In data set [7] the test system is RAW264.7. Kind of data set: Inhibition of LPS-induced IL-6 mRNA level in mouse RAW264.7 cells in presence of 1 ug/ml LPS for 6 hrs by qRT-PCR analysis. The class given is functional, cell-based.
Another data set concerns Rattus norvegicus. Kind of data set: Inhibition of LPS-induced TNF-alpha production in albino Wistar rat plasma pretreated with compound at 50 mg/kg, po followed by administration of 0.3 mg/kg, ip LPS measured after 90 mins by ELISA. The class given is functional.
For data set [8], the system named is RAW264.7. Description: Inhibition of LPS-induced TNF-alpha production in mouse RAW264.7 cells pretreated with compound at 10 uM for 1 hr followed by addition of 1 ug/ml LPS for 6 hrs by ELISA. The class given is functional.
For data set [9], the system named is RAW264.7. Kind of data set: Inhibition of LPS-induced NO production in mouse RAW264.7 cells at 100 ug/ml cotreated with 1 ug/ml LPS for 16 hrs by Griess reagent method. The class given is functional.
Data set [10] concerns RAW264.7. Description: Inhibition of LPS-induced TNF-alpha production in mouse RAW264.7 cells pretreated with compound for 1 hr followed by addition of 1 ug/ml LPS for 6 hrs by ELISA. The class given is functional, cell-based.

From ChEMBL document CHEMBL3739388, “Attenuation of TNF-α secretion by L-proline-based cyclic dipeptides produced by culture broth of Pseudomonas aeruginosa” (Bioorg Med Chem Lett, 2015) come the findings set out here.

The term IC50 denotes the concentration at which inhibition is half-maximal.

Each structure is given as a SMILES string. Values after ≈ are worked out from the molar mass of the structure shown.

Regarding `CC(C)C[C@@H]1NC(=O)[C@@H]2C[C@@H](O)CN2C1=O`, the inhibition result in the data set with RAW264.7 [1], with RAW264.7 [4] and with RAW264.7 [7] was “Dose-dependent effect” in each case. The “inhibition (INH)” value in the data set on RAW264.7 [2] was 49.3%; in the data set on Rattus norvegicus, 51%. For the same compound, the cytotoxicity at 24 h, 50 µM in [3] was 3%. In addition, the Activity result in the data set on RAW264.7 [5] and with RAW264.7 [6] was “Non-toxic” each time.
As to `C[C@]12C=CC(=O)C=C1CC[C@@H]1[C@@H]2[C@@H](O)C[C@@]2(C)[C@H]1CC[C@]2(O)C(=O)CO` [PREDNISOLONE], the “inhibition (INH)” value in the data set with RAW264.7 [8] turned out to be 42.8%.
With `O=C1NCC(=O)N2CCC[C@@H]12` [CYCLO(PROLYLGLYCYL)], the inhibition result in the data set with RAW264.7 [1], in the data set on RAW264.7 [4] and in the data set with RAW264.7 [7] was “Dose-dependent effect” throughout. The “inhibition (INH)” value in the data set on RAW264.7 [9] came out at 39.7%. In addition, the cytotoxicity at 24 h, 50 µM in data set [3] was 3%. Further, the Activity result in the data set on RAW264.7 [5] and with RAW264.7 [6] was “Non-toxic” in each case. The concentration for half-maximal inhibition (IC50) in the data set on RAW264.7 [10] worked out at 4.5 µg/mL (≈ 29.2 µM).
Regarding `O=C1N[C@@H](Cc2ccccc2)C(=O)N2C[C@H](O)C[C@@H]12`, the inhibition result in the data set on RAW264.7 [1], in the data set with RAW264.7 [4] and in the data set on RAW264.7 [7] was “Dose-dependent effect” in each case. Besides, the “inhibition (INH)” value in the data set on RAW264.7 [9] is listed as 43.5%. The cytotoxicity at 24 h, 50 µM in data set [3] amounted to 3%. For the same compound, the Activity result in the data set with RAW264.7 [5] and in the data set with RAW264.7 [6] was “Non-toxic” each time. Besides, the IC50 in the data set on RAW264.7 [10] stood at 14.2 µg/mL (≈ 54.6 µM).
For the compound `O=C1N[C@@H](Cc2ccccc2)C(=O)N2CCC[C@@H]12`, the inhibition result in the data set on RAW264.7 [1], in the data set with RAW264.7 [4] and with RAW264.7 [7] was “Dose-dependent effect” each time. For the same compound, in the data set with RAW264.7 [2], the “inhibition (INH)” value was 45%. Further, the cytotoxicity at 24 h, 50 µM in data set [3] stood at 3%. In addition, the Activity result in the data set with RAW264.7 [5] and in the data set on RAW264.7 [6] was “Non-toxic” each time.
